Results: PubChem BioAssay (NCI)
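Here, GI50 denotes the concentration required for 50% inhibition of growth. At the TGI there is no net growth.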

Tests used:
Assay in all cases: NCI-60 cell line screen, 384-well format
[1] = system: SR leukemia
[2] = system: COLO 205 colon
[3] = system: CCRF-CEM leukemia
[4] = system: HCT-15 colon
[5] = system: HL-60(TB) leukemia
[6] = system: NCI-H460 NSCLC
[7] = system: SK-MEL-5 melanoma
[8] = system: ACHN renal
[9] = system: K-562 leukemia
[10] = system: MDA-MB-468 breast
[11] = system: OVCAR-8 ovarian
[12] = system: MOLT-4 leukemia
[13] = system: RPMI-8226 leukemia

`Nc1ncn(C2CC(O)C(CO)O2)c(=O)n1` (centres undefined) showed a GI50 [1] of 2920 nM, a GI50 [2] of 65600 nM and a GI50 [3] of 706 nM. It also gave a GI50 [4] greater than 31200 nM, a GI50 [5] of 629 nM and a GI50 [6] of 1980 nM. It also gave a GI50 [7] of 705 nM, a GI50 [8] of 7840 nM and a GI50 [9] of 1280 nM. For the same compound, the GI50 [10] was less than 18.3 nM, the TGI [10] was 53.2 nM and the GI50 [11] was greater than 32900 nM. For the same compound, the GI50 [12] was 39.7 nM and the GI50 [13] was 225 nM.
